{"source": "patent US6193967A", "about": "“Bispecific reagents for redirected targeting of human lipoproteins” (priority 1997, dated 2001)", "tested_on": "monocytes", "assay": "Uptake of bispecific LDL*-IC by monocytes (flow cytometry of cell-associated fluorescence)", "assay_type": "cell-based, human", "details": "monocytes at 37° C., bispecific LDL*-IC (anti-FcγRII×anti-LDL plus BODIPY-LDL); antioxidant concentration not given", "experimental": "All experiments were done under sterile conditions. For each experiment, bispecific LDL immune complexes (bispecific LDL*-IC) were freshly prepared by combining 4 μg/ml of LDL* with heteroantibodies in eppendorf tubes in monocyte culture medium (without serum or unlabeled LDL unless otherwise indicated), and incubating for one hour at room temperature, prior to adding cells in RPMI 1640 plus 10% FCS. That concentration of LDL* was chosen because it gave a satisfactory signal to noise ratio. In all experiments, a control consisting of LDL* alone was set up by substituting medium for heteroantibody. The final volume of bispecific complexes prior to addition of cells was […]; […] of cells at 1×10^7 /ml were added for a final volume of […]. The tubes were then mixed by gentle pipetting, and incubated at 4° C. or 37° C. as indicated. Final mAb or heteroantibody concentrations are shown in each figure; the final concentration of LDL* in all preparations was 1.33 μg/ml unless otherwise indicated. […]\nIn all experiments, cells were removed after various times of incubation and washed twice with one ml of PBS at room temperature. […] For cytofluorogaphic analysis, samples were analyzed for green fluorescence on a FACScan (Becton-Dickinson). The excitation wavelength was 488 nm and emission at 515 nm was analyzed. […]", "data": [{"smiles": "Cc1cc(C(C)(C)C)c(O)c(C(C)(C)C)c1", "note": "[butylated hydroxytoluene]", "values": [{"measurement": "effect on the response to bispecific LDL*-IC (uptake by monocytes)", "value": "had no effect"}]}]}
